In brackets after ≈: the same amount, converted by molar mass.
Experiments:
Escherichia coli [1] = experiment: Antibacterial activity against Escherichia coli AS226 carrying pBSDF160T mutant after 18 hrs by broth microdilution method; format: functional; conditions: AS226, 18 h
Escherichia coli [2] = experiment: Ratio of Kcat to Km for Escherichia coli beta-lactamase Toho-1 N104A mutant assessed as compound hydrolysis by spectrophotometry
Escherichia coli [3] = experiment: Activity of Escherichia coli beta-lactamase Toho-1 C69A mutant assessed as compound hydrolysis by spectrophotometry
Escherichia coli [4] = experiment: Antibacterial activity against Escherichia coli AS226 carrying pBSDS237A mutant after 18 hrs by broth microdilution method; format: functional; conditions: AS226, 18 h
Escherichia coli [5] = experiment: Antibacterial activity against Escherichia coli AS226 carrying pBSD-H2 after 18 hrs by broth microdilution method; format: functional; conditions: AS226, 18 h
Escherichia coli [6] = experiment: Ratio of Kcat to Km for Escherichia coli beta-lactamase Toho-1 C69A mutant assessed as compound hydrolysis by spectrophotometry
Escherichia coli [7] = experiment: Antibacterial activity against Escherichia coli AS226 after 18 hrs by broth microdilution method; format: functional; conditions: AS226, 18 h
Escherichia coli [8] = experiment: Ratio of Kcat to Km for Escherichia coli beta-lactamase Toho-1 G232A mutant assessed as compound hydrolysis by spectrophotometry
Escherichia coli [9] = experiment: Antibacterial activity against Escherichia coli AS226 carrying pBSDC69A mutant after 18 hrs by broth microdilution method; format: functional; conditions: AS226, 18 h
Escherichia coli [10] = experiment: Antibacterial activity against Escherichia coli AS226 carrying pBSDN104D mutant after 18 hrs by broth microdilution method; format: functional; conditions: AS226, 18 h
Escherichia coli [11] = experiment: Antibacterial activity against Escherichia coli AS226 carrying pBSDD240A mutant after 18 hrs by broth microdilution method; format: functional; conditions: AS226, 18 h
Escherichia coli [12] = experiment: Activity of Escherichia coli beta-lactamase Toho-1 N104A mutant assessed as compound hydrolysis by spectrophotometry
Escherichia coli [13] = experiment: Antibacterial activity against Escherichia coli AS226 carrying pBSDN104A mutant after 18 hrs by broth microdilution method; format: functional; conditions: AS226, 18 h
Escherichia coli [14] = experiment: Activity of Escherichia coli beta-lactamase Toho-1 […] mutant assessed as compound hydrolysis by spectrophotometry
Escherichia coli [15] = experiment: Activity of Escherichia coli beta-lactamase Toho-1 D240S mutant assessed as compound hydrolysis by spectrophotometry
Escherichia coli [16] = experiment: Ratio of Kcat to Km for Escherichia coli beta-lactamase Toho-1 F160T mutant assessed as compound hydrolysis by spectrophotometry
Escherichia coli [17] = experiment: Ratio of Kcat to Km for Escherichia coli beta-lactamase Toho-1 […] mutant assessed as compound hydrolysis by spectrophotometry
Escherichia coli [18] = experiment: Activity of Escherichia coli beta-lactamase Toho-1 G232A mutant assessed as compound hydrolysis by spectrophotometry
Escherichia coli [19] = experiment: Ratio of Kcat to Km for Escherichia coli beta-lactamase Toho-1 D240A mutant assessed as compound hydrolysis by spectrophotometry
Escherichia coli [20] = experiment: Ratio of Kcat to Km for Escherichia coli beta-lactamase Toho-1 D240S mutant assessed as compound hydrolysis by spectrophotometry
Escherichia coli [21] = experiment: Activity of Escherichia coli beta-lactamase Toho-1 N104D mutant assessed as compound hydrolysis by spectrophotometry
Escherichia coli [22] = experiment: Ratio of Kcat to Km for Escherichia coli beta-lactamase Toho-1 N104D mutant assessed as compound hydrolysis by spectrophotometry
Escherichia coli [23] = experiment: Antibacterial activity against Escherichia coli AS226 carrying pBSDD240S mutant after 18 hrs by broth microdilution method; format: functional; conditions: AS226, 18 h
Escherichia coli [24] = experiment: Activity of Escherichia coli beta-lactamase Toho-1 D240A mutant assessed as compound hydrolysis by spectrophotometry
Escherichia coli [25] = experiment: Activity of Escherichia coli beta-lactamase Toho-1 F160T mutant assessed as compound hydrolysis by spectrophotometry
Escherichia coli [26] = experiment: Antibacterial activity against Escherichia coli AS226 carrying pBSD6 mutant after 18 hrs by broth microdilution method; format: functional; conditions: AS226, 18 h

Row | SMILES | MIC (Escherichia coli [1]) [µg/mL] | kcat/Km (Escherichia coli [2]) | Km (Escherichia coli [3]) [µM] | kcat (Escherichia coli [3]) [s⁻¹] | MIC (Escherichia coli [4]) [µg/mL] | MIC (Escherichia coli [5]) [µg/mL] | kcat/Km (Escherichia coli [6]) | MIC (Escherichia coli [7]) [µg/mL] | kcat/Km (Escherichia coli [8]) | MIC (Escherichia coli [9]) [µg/mL] | MIC (Escherichia coli [10]) [µg/mL] | MIC (Escherichia coli [11]) [µg/mL] | MIC (Escherichia coli [13]) [µg/mL] | Km (Escherichia coli [14]) [µM] | kcat (Escherichia coli [14]) [s⁻¹] | Km (Escherichia coli [15]) [µM] | kcat (Escherichia coli [15]) [s⁻¹] | kcat/Km (Escherichia coli [16]) | MIC (Escherichia coli [23]) [µg/mL] | MIC (Escherichia coli [26]) [µg/mL] | also measured
1 | CC1(C)S[C@@H]2[C@H](NC(=O)[C@H](N)c3ccccc3)C(=O)N2[C@H]1C(=O)O [AMPICILLIN] | 512 (≈ 1470 µM) | 7.2 ×10⁵ /s/M | 20 | 38 | 4100 (≈ 11700 µM) | 256 (≈ 733 µM) | 1.9 ×10⁶ /s/M | 1 (≈ 2.86 µM) | 1.1 ×10⁶ /s/M | 1020 (≈ 2930 µM) | 1020 (≈ 2930 µM) | 512 (≈ 1470 µM) | 256 (≈ 733 µM) | 120 | 310 | 25 | 33 | 1.5 ×10⁶ /s/M | 512 (≈ 1470 µM) | 128 (≈ 366 µM) | Km (Escherichia coli [12]): 38 µM; kcat (Escherichia coli [12]): 27 s⁻¹; kcat/Km (Escherichia coli [17]): 2.5 ×10⁶ /s/M; Km (Escherichia coli [18]): 35 µM; kcat (Escherichia coli [18]): 37 s⁻¹; kcat/Km (Escherichia coli [19]): 1.2 ×10⁶ /s/M; kcat/Km (Escherichia coli [20]): 1.3 ×10⁶ /s/M; Km (Escherichia coli [21]): 25 µM; kcat (Escherichia coli [21]): 28 s⁻¹; kcat/Km (Escherichia coli [22]): 1.1 ×10⁶ /s/M; Km (Escherichia coli [24]): 21 µM; kcat (Escherichia coli [24]): 27 s⁻¹; Km (Escherichia coli [25]): 26 µM; kcat (Escherichia coli [25]): 39 s⁻¹
2 | C[C@H]1[C@H](NC(=O)/C(=N\OC(C)(C)C(=O)O)c2csc(N)n2)C(=O)N1S(=O)(=O)O [AZTREONAM] | 16 (≈ 36.7 µM) | 3.5 ×10⁴ /s/M | 58 | 4.5 | 128 (≈ 294 µM) | 64 (≈ 147 µM) | 7.7 ×10⁴ /s/M | < 0.125 | 1.1 ×10⁵ /s/M | 64 (≈ 147 µM) | 1 (≈ 2.3 µM) | 128 (≈ 294 µM) | 8 (≈ 18.4 µM) | 31 | 9.1 | 93 | 12 | 9.6 ×10⁴ /s/M | 64 (≈ 147 µM) | 2 (≈ 4.59 µM) | Km (Escherichia coli [12]): 240 µM; kcat (Escherichia coli [12]): 8.6 s⁻¹; kcat/Km (Escherichia coli [17]): 2.9 ×10⁵ /s/M; Km (Escherichia coli [18]): 64 µM; kcat (Escherichia coli [18]): 6.7 s⁻¹; kcat/Km (Escherichia coli [19]): 1.5 ×10⁵ /s/M; kcat/Km (Escherichia coli [20]): 1.3 ×10⁵ /s/M; kcat/Km (Escherichia coli [22]): 1.9 ×10⁴ /s/M; Km (Escherichia coli [24]): 100 µM; kcat (Escherichia coli [24]): 15 s⁻¹; Km (Escherichia coli [25]): 69 µM; kcat (Escherichia coli [25]): 6.6 s⁻¹
3 | CO/N=C(\C(=O)N[C@@H]1C(=O)N2C(C(=O)O)=C(COC(C)=O)CS[C@H]12)c1csc(N)n1 [CEFOTAXIME] | 256 (≈ 562 µM) | 1.2 ×10⁵ /s/M | 350 | 370 | 32 (≈ 70.3 µM) | 256 (≈ 562 µM) | 1 ×10⁶ /s/M | < 0.125 | 1.7 ×10⁶ /s/M | 1020 (≈ 2250 µM) | 256 (≈ 562 µM) | 512 (≈ 1120 µM) | 16 (≈ 35.1 µM) | 230 | 94 | 320 | 370 | 1.2 ×10⁶ /s/M | 1020 (≈ 2250 µM) | 2 (≈ 4.39 µM) | kcat/Km (Escherichia coli [17]): 4.1 ×10⁵ /s/M; Km (Escherichia coli [18]): 259 µM; kcat (Escherichia coli [18]): 440 s⁻¹; kcat/Km (Escherichia coli [19]): 1.3 ×10⁶ /s/M; kcat/Km (Escherichia coli [20]): 1.2 ×10⁶ /s/M; kcat/Km (Escherichia coli [22]): 2.4 ×10⁵ /s/M; Km (Escherichia coli [24]): 360 µM; kcat (Escherichia coli [24]): 440 s⁻¹; Km (Escherichia coli [25]): 360 µM; kcat (Escherichia coli [25]): 410 s⁻¹
4 | CO[C@@]1(NC(=O)Cc2cccs2)C(=O)N2C(C(=O)O)=C(COC(N)=O)CS[C@@H]21 [CEFOXITIN] | 2 (≈ 4.68 µM) |  |  |  | 2 (≈ 4.68 µM) | 1 (≈ 2.34 µM) |  | 1 (≈ 2.34 µM) |  | 2 (≈ 4.68 µM) | 2 (≈ 4.68 µM) | 1 (≈ 2.34 µM) | 1 (≈ 2.34 µM) |  |  |  |  |  | 1 (≈ 2.34 µM) | 2 (≈ 4.68 µM) | 
